# Biological target: Acetylcholinesterase (Torpedo californica, UniProt P04058)
# Sequence (P04058 whole entry): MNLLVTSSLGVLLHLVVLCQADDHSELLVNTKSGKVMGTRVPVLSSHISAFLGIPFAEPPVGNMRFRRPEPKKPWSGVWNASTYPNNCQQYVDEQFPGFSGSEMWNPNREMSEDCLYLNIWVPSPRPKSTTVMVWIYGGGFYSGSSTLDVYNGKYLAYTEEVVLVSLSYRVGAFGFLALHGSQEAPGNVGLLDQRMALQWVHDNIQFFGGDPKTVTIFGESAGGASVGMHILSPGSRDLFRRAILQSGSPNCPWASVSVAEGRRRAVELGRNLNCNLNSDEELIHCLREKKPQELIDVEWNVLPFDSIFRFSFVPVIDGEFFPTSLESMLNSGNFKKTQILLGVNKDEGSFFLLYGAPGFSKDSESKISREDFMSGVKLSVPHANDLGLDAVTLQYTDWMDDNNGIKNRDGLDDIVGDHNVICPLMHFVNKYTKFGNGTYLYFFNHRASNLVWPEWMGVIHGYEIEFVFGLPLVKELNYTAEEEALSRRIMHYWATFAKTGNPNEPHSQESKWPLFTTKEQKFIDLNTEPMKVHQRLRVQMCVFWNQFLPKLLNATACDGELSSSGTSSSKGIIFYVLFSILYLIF
# Description: Inhibition of activity against Torpedo Ray acetylcholinesterase.
row,Structure (SMILES),IC50 [nM]
1,OC(O)(CCCCCNc1c2c(nc3cccc(Cl)c13)CCCCC2)C(F)(F)F,36
2,Nc1c2c(nc3cccc(Cl)c13)CCCCC2,2.4
3,CCOC(=O)c1c(C)nc2cccc(F)c2c1N,2600
4,Cc1nc2cccc(Cl)c2c(N)c1CNC1(C(F)(F)F)CCC(=O)O1 (stereo unspecified),7200
5,Cc1nc2ccccc2c(N)c1COCc1cccc(C(=O)C(F)(F)F)c1,3
6,Cc1nc2cccc(F)c2c(N)c1CSC1(C(F)(F)F)CCCO1 (stereo unspecified),18
7,Cc1nc2cccc(F)c2c(N)c1CSCc1cccc(C(=O)C(F)(F)F)c1,3
8,Cc1nc2cccc(Cl)c2c(N)c1COCc1cccc(C(=O)C(F)(F)F)c1,5.1
9,CC(=O)c1cccc(CSCc2c(C)nc3cccc(F)c3c2N)c1,15000
10,O=C(c1cccc(CBr)c1)C(F)(F)F,360
11,Cc1nc2cccc(F)c2c(N)c1CNC1(C(F)(F)F)CCC(=O)O1 (stereo unspecified),14000
12,O=C(c1ccc(CNc2c3c(nc4cccc(Cl)c24)CCCCC3)s1)C(F)(F)F,12
13,Cc1nc2cccc(F)c2c(N)c1COCc1ccccc1,2000
14,Cc1nc2cccc(F)c2c(N)c1CN,1900
15,Cc1nc2cccc(F)c2c(N)c1CSCc1cccc(C(O)C(F)(F)F)c1 (stereo unspecified),11000
16,Cc1nc2cccc(F)c2c(N)c1COCc1cccc(C(=O)C(F)(F)F)c1,3.8

# Reference: ChEMBL document CHEMBL1134612, “A structure-based design approach to the development of novel, reversible AChE inhibitors” (J Med Chem, 2001)
